The nature of data set [1]: Viscosity of the synthesized amphipathic compound. Type of data set: physicochemical. Conditions: at shear velocity of 92 l/s. The method, then: Specifically, the amphipathic compound represented by the general formula (I) has a viscosity of preferably 15.0 Pa-s or less, more preferably 11.0 Pa-s or less, further preferably 6.0 Pa-s or less, by itself, as measured at 25° C. This viscosity can be measured using, for example, a viscosity and viscoelasticity measuring apparatus (Gemini II, Malvern Instruments Ltd.) at a temperature of 25° C.
^1H-NMR and viscosity of the obtained compound were measured.

For data set [2] the following is noted: cited from earlier work.

SMILES strings stand for the structures.

Consider `CC(C)=CCC/C(C)=C/CC/C(C)=C/CCC(C)=CCCC(=O)OCC(O)CO` (racemic) [Example 6, Mono-O-(5,9,13,17-tetramethyloctadeca-4,8,12,16-tetraenoyl)glycerol], for which, in data set [1], the Viscosity is recorded as 0.37 Pa·s.

As for `CC1(C)O[C@@H]2C[C@H]3[C@@H]4CCC5=CC(=O)C=C[C@]5(C)[C@@]4(F)[C@@H](O)C[C@]3(C)[C@]2(C(=O)CO)O1` [triamcinolone acetonide], in data set [2], the pKa is listed as 13.37.

As to `CC(=CCCC(=O)OCC(O)CO)CCCC(C)CCCC(C)C` (stereo not shown) [Example 1, Mono-O-(5,9,13-trimethyltetradec-4-enoyl)glycerol], in data set [1], the Viscosity amounted to 0.48 Pa·s.

Consider `CC(C)=CCC/C(C)=C/CCC(C)=CCCC(=O)OCC(O)CO` (racemic) [Example 3, Mono-O-(5,9,13-trimethyltetradeca-4,8,12-trienoyl)glycerol], for which, in data set [1], the Viscosity is given as 0.26 Pa·s.

The pKa is the pH at which an ionisable group is half protonated.
